{"source": "patent US9434993B2", "about": "“Systems for identifying cosmetic agents for skin care compositions” (The Procter & Gamble Company, priority 2011, dated 2016)", "key": {"[1]": {"system": "Telomerized-keratinocytes", "test": "Microscopic evaluation of cell morphology, telomerized keratinocytes", "type": "cell-based, human", "settings": "10 μM in DMSO for 6 hr; vs 0.1% DMSO vehicle control", "description": "(§1) All cells were incubated at 37° C. in a humidified incubator with 5% CO2. At t=−24 hours cells were trypsinized from T-75 flasks and plated into 6-well plates in basal growth medium. At t=0 media was removed and replaced with the appropriate dosing solution as per the experimental design. Dosing solutions were prepared the previous day in sterile 4 ml Falcon snap cap tubes. Pure test materials may be prepared at a concentration of 1-200 μM, and botanical extracts may be prepared at a concentration of 0.001 to 1% by weight of the dosing solution. After 6 to 24 hours of chemical exposure, cells were viewed and imaged. The wells were examined with a microscope before cell lysis and RNA isolation to evaluate for morphologic evidence of toxicity. […] Cells were then lysed with 350 ul/well of RLT buffer containing β-mercaptoethanol (Qiagen, Valencia, Calif.), transferred to a 96-well plate, and stored at −20° C."}, "BJ fibroblasts": {"system": "BJ fibroblasts", "test": "Microscopic evaluation of cell morphology, BJ fibroblasts", "type": "cell-based, human", "settings": "10 μM in DMSO for 6 hr; vs 0.1% DMSO vehicle control", "description": "as §1"}}, "note": "“Also recorded” adds a separate entry of the source."}
{"compound": "CC1=C(/C=C/C(C)=C/C=C/C(C)=C/C(=O)O)C(C)(C)CCC1", "note": "[tRA, all-trans-retinoic acid]", "values": [{"measurement": "morphology of treated keratinocytes", "setting": "[1]", "value": "marked morphologic changes; also recorded: dramatic morphologic changes"}, {"measurement": "morphology of treated fibroblasts", "setting": "BJ fibroblasts", "value": "no apparent morphologic effect"}]}
